Test results taken from patent US8912190B2, “Substituted heterocyclic compounds” (Gilead Sciences, Inc., priority 2008, dated 2014).

What was measured:
[1] = target: T1, wild-type human cardiac sodium channel, hNav1.5 (Homo sapiens, UniProt Q14524); assay: Late INa screening assay (PatchXpress whole cell patch clamp); type: cell-based; details: HEK293 hNav1.5; for inhibition at 10 µM: compound at 10 uM, late INa generated with Tefluthrin or ATX II, read-out: Late INa 10 uM (percent block of late INa); for Late INa 1 uM (percent block of late INa): compound at 1 uM
T1 construct: host or cells: HEK293
Procedure: The late sodium current (Late INa) and peak sodium current (Peak INa) assays were performed on an automated electrophysiology platform, PatchXpress 7000A (MDS Analytical Technologies, Sunnyvale, Calif.), using the whole cell patch clamp technique to measure currents through the cell membrane of up to 16 cells at a time. The assay used an HEK293 (human embryonic kidney) cell line heterologously expressing the wild-type human cardiac sodium channel, hNav1.5, purchased from Millipore (Billerica, Mass.). No beta subunits were coexpressed with the Na channel alpha subunit. Cells were maintained with standard tissue culture procedures, and stable channel expression was maintained with 400 μg/ml Geneticin in the culture medium. Cells isolated for use on PatchXpress were incubated for 5 minutes in Versene 1× and then for 2 minutes in 0.0125% Trypsin-EDTA (both at 37° C.) to ensure that 80-90% of the cells are single and not part of a cell cluster. Experiments were carried out at 24-27° C.
For both the Late INa and Peak INa assays, series resistance compensation was set to 50% and whole-cell compensation was performed automatically. Currents were low-pass filtered at 10 kHz and digitized at 31.25 kHz. Currents through open sodium channels were automatically recorded and stored in the DataXpress2 database (MDS Analytical Technologies, Sunnyvale, Calif.). Analysis was performed using DataXpress2 analysis software and data are compiled in Excel.
Compound stocks were routinely made in glass vials to 10 mM in dimethyl sulfoxide (DMSO). In some cases, when compounds were not soluble in DMSO, they are made in 100% ethanol. Stocks were sonicated as necessary. The extracellular solution for screening Late INa was composed of: 140 mM NaCl, 4 mM KCl, 1.8 mM CaCl2, 0.75 mM MgCl2, and 5 mM HEPES with pH adjusted to 7.4 using NaOH. The extracellular solution for screening Peak INa was composed of: 20 mM NaCl, 120 mM N-methyl-D glucamine, 4 mM KCl, 1.8 mM CaCl2, 0.75 mM MgCl2, and 5 mM HEPES with pH adjusted to 7.4 using HCl. The intracellular solution used to perfuse the inside of the cells for both the Late INa and Peak INa assays contained: 120 mM CsF, 20 mM CsCl, 5 mM EGTA, 5 mM HEPES and pH adjusted to 7.4 with CsOH. Compounds were diluted in extracellular solution to […] in glass vials and then transferred to glass well plates before robotic addition to the cells. The 0Na extracellular solution used at the end of each experiment for the Late INa and Peak INa assays to measure baseline current contained: 140 mM N-methyl-D-glucamine; 4 mM KCl; 1.8 mM CaCl2; 0.75 mM MgCl2; 5 mM HEPES and pH was adjusted to 7.4 with HCl.
For the Late INa assay, sodium channels were activated every 10 seconds (0.1 Hz) by depolarizing the cell membrane to −20 mV for 250 milliseconds (ms) from a holding potential of −120 mV. In response to a −20 mV voltage step, typical Nav1.5 sodium currents activated rapidly to a peak negative current and then inactivated nearly completely within 3-4 ms.
All compounds were tested to determine their activity in blocking the late sodium current. Late INa current was generated by adding 10 μM Tefluthrin (pyrethroid) to the extracellular solution while recording Na currents. For some experiments, 50 nM ATX II (sea anemone toxin), another late INa activator, was used to generate the late component. Both activators generated late components that are large, and thus block of the late component by compounds could be measured easily. For the purposes of the screening, late INa is defined as the mean current between 225 ms and 250 ms after stepping to −20 mV to activate Na channels. After establishing the whole cell recording configuration, late INa activators were added to each well 4 times over a 16-17 minute period so that the late component of the Na current reached a stable value. Compounds were then added (typically at 10 μM), in the presence of late INa activator, with 3 additions over the course of 7 or 8 minutes. […]

hERG potassium channel = target: T2, hERG potassium channel (Homo sapiens, UniProt Q12809); assay: hERG screening assay (PatchXpress patch clamp, CHO cells); type: cell-based; details: CHO cells expressing hERG; for HERG 1 uM (block of hERG current): compound at 1 uM; for HERG 10 uM (block of hERG current): compound at 10 uM
T2 construct: expressed in transfected cells; host or cells: CHO (Chinese Hamster Ovary)
Procedure: Compounds were screened to test their activity in blocking the hERG potassium channel. The hERG channel is heterologously expressed in a CHO (Chinese Hamster Ovary) cell line. Cells were maintained with standard tissue culture procedures and stable channel expression was maintained with 500 μg/ml G418 in the culture medium. Cells were harvested for testing on the PatchXpress automated patch clamp with Accumax (Innovative Cell Technologies, San Diego, Calif.) to isolate single cells.
The following solutions were used for electrophysiological recordings. The external solution contained: 2 mM CaCl2; 2 mM MgCl2; 4 mM KCl; 150 mM NaCl; 10 mM Glucose; 10 mM HEPES (pH 7.4 with 1M NaOH, osmolarity). The internal solution contained: 140 mM KCl, 10 mM MgCl2, 6 mM EGTA, 5 mM HEPES, 5 mM ATP (pH adjusted to 7.25 with KOH).
hERG channels were activated when the voltage was stepped to +20 mV from the −80 mV holding potential. During a 5 second step at +20 mV, the channels activated and then largely inactivated, so the currents were relatively small. Upon returning to −50 mV from +20 mV, hERG currents transiently became much larger as inactivation was rapidly removed and then the channel closed. The first step to −50 mV for 300 ms was used as a baseline for measuring the peak amplitude during the step to −50 mV after channel activation. The peak current at −50 mV was measured both under control conditions and after addition of compound.
All compounds were prepared as 10 mM DMSO stocks in glass vials. Stock solutions were mixed by vigorous vortexing and sonication for about 2 minutes at room temperature. For testing, compounds were diluted in glass vials using an intermediate dilution step in pure DMSO and then further diluted to working concentrations in external solution. Dilutions were prepared no longer than 20 minutes before use.
After achieving the whole-cell configuration, cells were monitored for 90 seconds to assess stability and washed with external solution for 66 seconds. The voltage protocol described above was then applied to the cells every 12 seconds and throughout the whole procedure. Only cells with stable recording parameters and meeting specified health criteria were allowed to enter the compound addition procedure.
External solution containing 0.1% DMSO (vehicle) was applied to the cells first to establish the control peak current amplitude. After allowing the current to stabilize for […], 1 μM and then 10 μM test compounds were applied. Each compound concentration was added 4 times and cells were kept in test solution until the effect of the compound reached steady state or for a maximum of 12 minutes. After addition of test compound, a positive control (1 μM Cisapride) was added, and must block >95% of the current for the experiment to be considered valid. Washout in the external solution compartment was performed until the recovery of the current reached steady state. Data was analyzed using DataXpress, Clampfit (Molecular Devices, Inc., Sunnyvale) and Origin 7 (Originlab Corp.)

T2 sequence (Q12809 whole entry): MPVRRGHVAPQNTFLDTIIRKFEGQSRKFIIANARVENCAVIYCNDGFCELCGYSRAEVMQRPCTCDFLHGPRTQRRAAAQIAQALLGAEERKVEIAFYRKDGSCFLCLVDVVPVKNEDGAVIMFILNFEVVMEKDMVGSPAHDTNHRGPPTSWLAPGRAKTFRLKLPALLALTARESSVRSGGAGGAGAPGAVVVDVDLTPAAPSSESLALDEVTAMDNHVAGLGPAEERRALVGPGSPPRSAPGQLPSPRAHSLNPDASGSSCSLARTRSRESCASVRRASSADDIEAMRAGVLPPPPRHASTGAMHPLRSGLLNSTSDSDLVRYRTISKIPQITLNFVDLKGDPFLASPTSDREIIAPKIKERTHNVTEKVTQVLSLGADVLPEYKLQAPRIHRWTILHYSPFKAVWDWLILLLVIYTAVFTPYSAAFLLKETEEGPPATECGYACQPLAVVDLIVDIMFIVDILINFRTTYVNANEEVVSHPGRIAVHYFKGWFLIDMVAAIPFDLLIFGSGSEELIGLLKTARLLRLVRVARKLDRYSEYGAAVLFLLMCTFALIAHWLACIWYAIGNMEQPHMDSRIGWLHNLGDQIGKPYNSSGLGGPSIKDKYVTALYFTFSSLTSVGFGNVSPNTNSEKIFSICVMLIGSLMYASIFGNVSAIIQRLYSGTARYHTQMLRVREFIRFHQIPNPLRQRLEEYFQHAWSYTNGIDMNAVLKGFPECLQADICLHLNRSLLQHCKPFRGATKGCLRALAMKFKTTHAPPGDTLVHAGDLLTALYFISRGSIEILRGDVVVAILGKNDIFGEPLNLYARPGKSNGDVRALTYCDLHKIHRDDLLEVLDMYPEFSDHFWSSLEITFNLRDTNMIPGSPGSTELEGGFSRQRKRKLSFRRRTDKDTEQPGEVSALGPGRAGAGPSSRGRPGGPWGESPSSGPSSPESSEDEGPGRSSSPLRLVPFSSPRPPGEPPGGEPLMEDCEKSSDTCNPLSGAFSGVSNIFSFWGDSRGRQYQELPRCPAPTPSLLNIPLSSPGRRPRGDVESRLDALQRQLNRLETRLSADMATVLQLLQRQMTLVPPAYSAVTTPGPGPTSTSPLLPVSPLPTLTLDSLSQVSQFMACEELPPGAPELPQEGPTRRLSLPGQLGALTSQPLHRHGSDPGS
T1 sequence (Q14524 whole entry): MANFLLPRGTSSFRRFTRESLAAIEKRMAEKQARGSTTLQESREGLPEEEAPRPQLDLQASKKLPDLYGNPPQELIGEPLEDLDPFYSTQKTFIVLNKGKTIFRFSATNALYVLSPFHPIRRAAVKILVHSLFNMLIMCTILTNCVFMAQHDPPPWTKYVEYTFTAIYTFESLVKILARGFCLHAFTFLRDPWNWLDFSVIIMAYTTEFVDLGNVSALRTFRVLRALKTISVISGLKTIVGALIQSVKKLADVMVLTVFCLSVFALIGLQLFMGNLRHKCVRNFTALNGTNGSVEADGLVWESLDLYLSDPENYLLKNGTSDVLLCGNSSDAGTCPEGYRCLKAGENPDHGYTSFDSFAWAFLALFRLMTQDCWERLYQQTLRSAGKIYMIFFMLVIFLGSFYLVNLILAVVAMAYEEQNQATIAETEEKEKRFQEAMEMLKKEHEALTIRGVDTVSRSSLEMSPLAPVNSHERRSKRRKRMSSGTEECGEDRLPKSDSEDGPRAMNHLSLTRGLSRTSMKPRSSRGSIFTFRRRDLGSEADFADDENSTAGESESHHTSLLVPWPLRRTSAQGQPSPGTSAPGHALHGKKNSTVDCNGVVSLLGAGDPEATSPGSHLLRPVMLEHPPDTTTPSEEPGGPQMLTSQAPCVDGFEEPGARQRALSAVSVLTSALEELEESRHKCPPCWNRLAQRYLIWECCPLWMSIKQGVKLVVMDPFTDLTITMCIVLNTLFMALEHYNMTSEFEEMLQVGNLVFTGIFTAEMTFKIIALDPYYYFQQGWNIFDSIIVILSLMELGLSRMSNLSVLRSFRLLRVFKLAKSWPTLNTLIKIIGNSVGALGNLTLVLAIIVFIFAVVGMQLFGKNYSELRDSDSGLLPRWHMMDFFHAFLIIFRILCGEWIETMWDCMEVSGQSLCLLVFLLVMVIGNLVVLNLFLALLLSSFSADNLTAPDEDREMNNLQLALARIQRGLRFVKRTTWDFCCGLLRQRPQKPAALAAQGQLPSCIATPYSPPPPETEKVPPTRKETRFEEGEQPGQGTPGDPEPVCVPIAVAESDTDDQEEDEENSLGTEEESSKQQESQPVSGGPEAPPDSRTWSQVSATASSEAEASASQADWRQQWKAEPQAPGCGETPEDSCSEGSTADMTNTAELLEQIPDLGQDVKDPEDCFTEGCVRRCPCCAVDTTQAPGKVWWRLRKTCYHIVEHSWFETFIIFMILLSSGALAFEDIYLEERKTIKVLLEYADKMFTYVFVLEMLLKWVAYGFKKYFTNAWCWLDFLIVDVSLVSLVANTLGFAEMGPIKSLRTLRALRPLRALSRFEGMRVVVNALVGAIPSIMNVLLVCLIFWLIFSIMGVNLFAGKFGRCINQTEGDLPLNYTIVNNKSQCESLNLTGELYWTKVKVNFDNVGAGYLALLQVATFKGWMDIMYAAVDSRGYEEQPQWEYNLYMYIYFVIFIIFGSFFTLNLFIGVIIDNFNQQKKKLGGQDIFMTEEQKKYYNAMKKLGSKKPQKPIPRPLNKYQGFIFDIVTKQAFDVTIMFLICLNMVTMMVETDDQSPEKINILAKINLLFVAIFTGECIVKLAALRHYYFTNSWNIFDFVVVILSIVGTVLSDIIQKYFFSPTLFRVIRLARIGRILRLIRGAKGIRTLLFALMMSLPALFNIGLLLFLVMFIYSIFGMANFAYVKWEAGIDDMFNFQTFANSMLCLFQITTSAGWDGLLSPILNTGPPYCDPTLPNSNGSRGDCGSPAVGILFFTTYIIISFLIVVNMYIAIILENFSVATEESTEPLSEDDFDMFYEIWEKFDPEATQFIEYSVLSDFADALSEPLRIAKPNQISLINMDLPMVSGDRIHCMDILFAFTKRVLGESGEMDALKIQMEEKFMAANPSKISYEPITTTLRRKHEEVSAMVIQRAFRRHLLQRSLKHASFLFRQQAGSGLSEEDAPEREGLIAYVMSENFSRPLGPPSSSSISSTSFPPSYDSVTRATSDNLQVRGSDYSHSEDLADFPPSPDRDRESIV

SMILES | inhibition at 10 µM [1] [%] | HERG 1 uM (block of hERG current) (hERG potassium channel) [%] | HERG 10 uM (block of hERG current) (hERG potassium channel) [%] | Late INa 1 uM (percent block of late INa) [1] [%]
Cc1nc2cc(-c3ccc(F)c(F)c3)ccc2n(C)c1=O [6-(3,4-difluorophenyl)-1,3-dimethylquinoxalin-2(1H)-one] | 14.3 |  |  | 
Cn1c(=O)c(C(F)(F)F)nc2cc(-c3cccc(C(F)(F)F)c3)ccc21 [1-methyl-3-(trifluoromethyl)-6-[3-(trifluoromethyl)phenyl] quinoxalin-2(1H)-one] | 24 |  |  | 
CC(C)c1nc2ccc(-c3cccc(OC(F)(F)F)c3)cc2n(C)c1=O [1-methyl-3-(propan-2-yl)-7-[3-(trifluoromethoxy)phenyl] quinoxalin-2(1H)-one] | 49.9 |  |  | 
CC(C)c1nc2ccc(-c3ccc(OC(F)(F)F)cc3)cc2n(C)c1=O [1-methyl-3-(propan-2-yl)-7-[4-(trifluoromethoxy)phenyl] quinoxalin-2(1H)-one] | 60.3 | 10.0 | 10.0 | 31.3
Cc1nc2cc(-c3cccc(OC(F)(F)F)c3)ccc2n(C)c1=O [1,3-dimethyl-6-[3-(trifluoromethoxy)phenyl] quinoxalin-2(1H)-one] | 70.9 | 19.5 | 71.5 | 
Cc1nc2cc(-c3ccc(OC(F)(F)F)cc3)ccc2n(C)c1=O [1,3-dimethyl-6-[4-(trifluoromethoxy)phenyl] quinoxalin-2(1H)-one] | 33.7 |  |  | 
Cc1nc2ccc(-c3ccc(OC(F)(F)F)cc3)cc2n(C)c1=O [1,3-dimethyl-7-[4-(trifluoromethoxy)phenyl] quinoxalin-2(1H)-one] | 61.7 |  |  | 31.0
Cc1nc2ccc(-c3cccc(C(F)(F)F)c3)cc2n(C)c1=O [1,3-dimethyl-7-[3-(trifluoromethyl)phenyl] quinoxalin-2(1H)-one] | 45.5 |  |  | 
Cn1c(=O)cnc2ccc(-c3ccc(OC(F)(F)F)cc3)cc21 [1-methyl-7-[4-(trifluoromethoxy)phenyl] quinoxalin-2(1H)-one] | 51.6 | 10.00 | 41.5 | 
Cn1c(=O)c(C(F)(F)F)nc2ccc(-c3ccc(OC(F)(F)F)cc3)cc21 [1-methyl-7-[4-(trifluoromethoxy)phenyl]-3-(trifluoromethyl)quinoxalin-2(1H)-one] | 38.7 | 10.00 | 39.0 | 
Cc1nc2ccc(-c3ccc(C(F)(F)F)cc3)cc2n(C)c1=O [1,3-dimethyl-7-[4-(trifluoromethyl)phenyl] quinoxalin-2(1H)-one] | 58.3 | 25.0 | 69.5 | 
CC(C)(C)c1nc2ccc(-c3cccc(OC(F)(F)F)c3)cc2n(CCNC(=O)CO)c1=O [N-(2-{3-tert-butyl-2-oxo-7-[3-(trifiuoromethoxy)phenyl]quinoxalin-1(2H)-yl}ethyl)-2-hydroxyacetamide] | 58.1 |  |  | 
Cn1c(=O)c(C(F)(F)F)nc2cc(-c3ccc(OC(F)(F)F)cc3)ccc21 [1-methyl-6-[4-(trifluoromethoxy)phenyl]-3-(trifluoromethyl)quinoxalin-2(1H)-one] | 39.9 | 10.0 | 47.5 | 
Cn1c(=O)cnc2ccc(-c3ccc(F)c(F)c3)cc21 [7-(3,4-difluorophenyl)-1-methylquinoxalin-2(1H)-one] | 17.5 |  |  | 
Cn1c(=O)c(C(C)(C)O)nc2ccc(-c3ccc(OC(F)(F)F)cc3)cc21 [3-(2-hydroxypropan-2-yl)-1-methyl-7-[4-(trifluoromethoxy)phenyl] quinoxalin-2(1H)-one] | 54 | 19.5 | 76.0 | 
CCOC(=O)c1nc2ccc(-c3cccc(OC(F)(F)F)c3)cc2n(C)c1=O [ethyl 4-methyl-3-oxo-6-[3-(trifluoromethoxy)phenyl]-3,4-dihydroquinoxaline-2-carboxylate] | 54.3 |  |  | 
Cn1c(=O)c(C(C)(C)C)nc2ccc(-c3ccc(OC(F)(F)F)cc3)cc21 [3-tert-butyl-1-methyl-7-[4-(trifluoromethoxy)phenyl] quinoxalin-2(1H)-one] | 44.6 |  |  | 
CCOC(=O)c1nc2ccc(-c3ccc(OC(F)(F)F)cc3)cc2n(C)c1=O [ethyl 4-methyl-3-oxo-6-[4-(trifluoromethoxy)phenyl]-3,4-dihydroquinoxaline-2-carboxylate] | 49.3 | 34.0 | 79.5 | 
O=C(CO)NCCn1c(=O)c(C(F)(F)F)nc2ccc(-c3ccc(OC(F)(F)F)cc3)cc21 [2-hydroxy-N-(2-{2-oxo-7-[4-(trifiuoromethoxy)phenyl]-3-(trifluoromethyl)quinoxalin-1(2H)-yl}ethyl)acetamide] | 19 |  |  | 
Cn1c(=O)c(C(F)(F)F)nc2cc(-c3cccc(OC(F)(F)F)c3)ccc21 [1-methyl-6-[3-(trifluoromethoxy)phenyl]-3-(trifluoromethyl)quinoxalin-2(1H)-one] | 31.6 |  |  | 
